# Counter-ions that a name gives are not always drawn.
row,Compound,melting point [°C]
1,COc1nc2ccc(SC)cc2cc1C(c1ccc(Cl)cc1)C1(O)CCNC(Cc2ccccc2)C1 (stereo not drawn) (as salt: fumarate) [Compound 90],140
2,COc1nc2ccc(Cl)cc2cc1C(c1ccc(Cl)cc1)C1(O)CCNC(Cc2ccccc2)C1 (stereo not drawn) (as salt: fumarate) [Compound 94],168
3,COc1nc2ccc(Br)cc2cc1C(c1ccc(Cl)cc1)C1(O)CCNC(Cc2ccc(F)c(F)c2)C1 (stereo not drawn) (as salt: fumarate) [Compound 113],130
4,COc1nc2ccccc2cc1C(c1ccc(Cl)cc1)C1(O)CCNC(Cc2ccc(F)c(F)c2)C1 (stereo not drawn) (as salt: fumarate) [Compound 139],130
5,COc1nc2ccc(SC)cc2cc1C(c1ccccc1)C1(O)CCNC(Cc2ccccc2)C1 (stereo not drawn) (as salt: fumarate) [Compound 141],155
6,COc1nc2ccc(Br)cc2cc1C(c1cccc(Cl)c1)C1(O)CCNC(c2ccc(F)cc2C)C1 (stereo not drawn) (as salt: fumarate) [Compound 151],156
7,COc1nc2ccc(Br)cc2cc1C(c1cccc(Cl)c1)C1(O)CCNC(c2ccc(F)cc2C)C1 (stereo not drawn) (as salt: fumarate) [Compound 152],170
8,COc1nc2ccc(SC)cc2cc1C(c1cccc(Cl)c1)C1(O)CCNC(c2ccc(F)cc2C)C1 (stereo not drawn) (as salt: fumarate) [Compound 164],170
9,COc1nc2ccc(SC)cc2cc1C(c1cccc(Cl)c1)C1(O)CCNC(c2ccc(F)cc2C)C1 (stereo not drawn) (as salt: fumarate) [Compound 165],168
10,COc1nc2ccc(SC)cc2cc1C(c1ccc(Cl)cc1)C1(O)CCNCC1Cc1cccc(F)c1 (stereo not drawn) (as salt: fumarate) [Compound 286],177
11,COc1nc2ccc(SC)cc2cc1C(c1ccc(Cl)cc1)C1(O)CCNC(CC2CCCCC2)C1 (stereo not drawn) (as salt: fumarate) [Compound 288],150
12,COc1nc2ccc(F)cc2cc1C(c1ccc(Cl)cc1)C1(O)CCNC(c2ccc(F)cc2C)C1 (stereo not drawn) (as salt: fumarate) [Compound 330],170
13,COc1nc2ccc(F)cc2cc1C(c1ccc(Cl)cc1)C1(O)CCNC(c2ccc(F)cc2C)C1 (stereo not drawn) (as salt: fumarate) [Compound 331],166
14,COc1nc2ccc(Cl)cc2cc1C(c1ccc(Cl)cc1)C1(O)CCNC(Cc2ccc(F)cc2)C1 (stereo not drawn) (as salt: fumarate) [Compound 346],151 to 153
15,COc1nc2ccc(Cl)cc2cc1C(c1ccc(Cl)cc1)C1(O)CCNC(Cc2ccc(F)cc2)C1 (stereo not drawn) (as salt: fumarate) [Compound 347],148 to 150
16,COc1nc2ccccc2cc1C(c1ccccc1)C1(O)CCNC(Cc2ccccc2)C1 (stereo not drawn) (as salt: fumarate) [Compound 401],240
17,COc1nc2ccc(Cl)cc2cc1C(c1ccc(Cl)cc1)C1(O)CCNC(c2ccccc2)C1 (stereo not drawn) (as salt: fumarate) [Compound 403],176
18,COc1nc2ccc(Cl)cc2cc1C(c1ccc(Cl)cc1)C1(O)CCNC(c2ccccc2)C1 (stereo not drawn) (as salt: fumarate) [Compound 404],168
19,COc1nc2ccc(Cl)cc2cc1C(c1ccc(Cl)cc1)C1(O)CCNCC1c1ccccc1 (stereo not drawn) (as salt: fumarate) [Compound 410],155
20,COc1nc2ccc(Cl)cc2cc1C(c1ccc(Cl)cc1)C1(O)CCNCC1c1ccccc1 (stereo not drawn) (as salt: fumarate) [Compound 411],168

# Results, then the molecule that gave them:
row,melting point [°C],Compound
1,194,CSc1nc2ccc(Br)cc2cc1C(c1ccc(Cl)cc1)C1(O)CCNC(Cc2ccccc2)C1 (stereo not drawn) (as salt: fumarate) [Compound 88]
2,> 250,COc1nc2ccc(SC)cc2cc1C(c1ccc(Cl)cc1)C1(O)CCNC(Cc2ccccc2)C1 (stereo not drawn) (as salt: fumarate) [Compound 93]
3,215,CS(=O)(=O)c1ccc2[nH]c(=O)c(C(c3ccc(Cl)cc3)C3(O)CCNC(Cc4ccccc4)C3)cc2c1 (stereo not drawn) (as salt: fumarate) [Compound 119]
4,178,COc1nc2ccc(Br)cc2cc1C(c1cccc(Cl)c1)C1(O)CCNC(c2ccc(F)cc2C)C1 (stereo not drawn) (as salt: fumarate) [Compound 149]
5,184,COc1nc2ccc(Br)cc2cc1C(c1cccc(Cl)c1)C1(O)CCNC(c2ccc(F)cc2C)C1 (stereo not drawn) (as salt: fumarate) [Compound 150]
6,176,COc1nc2ccc(SC)cc2cc1C(c1ccccc1)C1(O)CCNC(c2ccc(F)cc2C)C1 (stereo not drawn) (as salt: fumarate) [Compound 170]
7,195,COc1nc2ccc(S(C)(=O)=O)cc2cc1C(c1ccc(Cl)cc1)C1(O)CCNC(c2ccc(F)cc2C)C1 (stereo not drawn) (as salt: fumarate) [Compound 201]
8,213,CS(=O)(=O)c1ccc2[nH]c(=O)c(C(c3ccc(Cl)cc3)C3(O)CCNC(Cc4ccc(F)c(F)c4)C3)cc2c1 (stereo not drawn) (as salt: fumarate) [Compound 214]
9,163,COc1nc2ccc(SC)cc2cc1C(c1ccc(Cl)cc1)C1(O)CCNCC1Cc1cccc(F)c1 (stereo not drawn) (as salt: fumarate) [Compound 284]
10,164,COc1nc2ccc(F)cc2cc1C(c1ccc(Cl)cc1)C1(O)CCNC(c2ccc(F)cc2C)C1 (stereo not drawn) (as salt: fumarate) [Compound 332]
11,152 to 154,COc1nc2ccc(Cl)cc2cc1C(c1ccc(Cl)cc1)C1(O)CCNC(Cc2ccc(F)cc2)C1 (stereo not drawn) (as salt: fumarate) [Compound 345]
12,145,COc1nc2ccc(Cl)cc2cc1C(c1ccc(Cl)cc1)C1(O)CCNC(Cc2ccc(F)cc2)C1 (stereo not drawn) (as salt: fumarate) [Compound 348]
13,166 to 168,COc1nc2ccc(Cl)cc2cc1C(c1ccc(SC)cc1)C1(O)CCNC(c2ccc(F)cc2C)C1 (stereo not drawn) (as salt: fumarate) [Compound 353]
14,168 to 170,COc1nc2ccc(Cl)cc2cc1C(c1ccc(SC)cc1)C1(O)CCNC(c2ccc(F)cc2C)C1 (stereo not drawn) (as salt: fumarate) [Compound 354]
15,144,COc1nc2ccc(Cl)cc2cc1C(c1ccc(S(C)(=O)=O)cc1)C1(O)CCNC(c2ccc(F)cc2C)C1 (stereo not drawn) (as salt: fumarate) [Compound 368]
16,138,COc1nc2ccc(Cl)cc2cc1C(c1ccc(S(C)(=O)=O)cc1)C1(O)CCNC(c2ccc(F)cc2C)C1 (stereo not drawn) (as salt: fumarate) [Compound 369]
17,222 to 224,COc1nc2ccccc2cc1C(c1ccccc1)C1(O)CCNC(Cc2ccccc2)C1 (stereo not drawn) (as salt: fumarate) [Compound 399]
18,157,COc1nc2ccccc2cc1C(c1ccccc1)C1(O)CCNC(Cc2ccccc2)C1 (stereo not drawn) (as salt: fumarate) [Compound 400]
19,175 to 177,COc1nc2ccccc2cc1C(c1ccccc1)C1(O)CCNC(Cc2ccccc2)C1 (stereo not drawn) (as salt: fumarate) [Compound 402]
20,184,COc1nc2ccc(Cl)cc2cc1C(c1ccc(Cl)cc1)C1(O)CCNC(c2ccccc2)C1 (stereo not drawn) (as salt: fumarate) [Compound 405]
21,135,COc1ccc2nc(OC)c(C(c3ccccc3)C3(O)CCNC(Cc4ccccc4)C3)cc2c1 (stereo not drawn) (as salt: fumarate) [Compound 408]
22,190,COc1nc2ccc(Cl)cc2cc1C(c1ccc(Cl)cc1)C1(O)CCNCC1c1ccccc1 (stereo not drawn) (as salt: fumarate) [Compound 409]
